Here are results for 56 molecules from ChEMBL document CHEMBL1124950, “Synthesis and cardiotonic activity of novel biimidazoles” (J Med Chem, 1990).

Broadly, the inhibition is the percentage by which the read-out fell short of the control. Higher therefore signals a strong effect. By IC50 is commonly meant the concentration that inhibits the measured activity by half. Lower therefore signals greater potency in that assay.

Active and inactive are the calls of the source. The calls are words filed in the database; no cut-off is given here.

Assay [1] relates to Canis familiaris. As to the kind of experiment: Peak percent change in contractile force produced by the administration of 1 mg/kg intravenously in anesthetized dog. The format is functional, Canis lupus familiaris. The note with it: route intravenous.
The target of assay [2] is T1, Phosphodiesterase 4 (Homo sapiens, UniProt P27815+Q08499+Q07343+Q08493). Nature of the assay: Inhibition of canine kidney Phosphodiesterase 4 at 150 uM. The note with it: Canis lupus familiaris, target entry is the homologue from another species.
In assay [3] the test system is Canis familiaris. Nature of the assay: Inotropic effect in anesthetized dog. The format is functional. Conditions: Canis lupus familiaris.
The subject of assay [4] is Rattus norvegicus. Nature of the assay: 25% increase in left ventricular contractility (dP/dtmax) on iv administration in anesthetized rat. The format is functional. The note with it: Heart left ventricle.
Assay [5] relates to Canis familiaris. Nature of the assay: Peak percent change in contractile force produced after iv administration at 0.3 mg/kg in ansthetetized dog. It is filed as functional, Canis lupus familiaris.
Assay [6] has as its system Rattus norvegicus. As to the kind of experiment: 25% increase in left ventricular contractility (dP/dtmax) after iv administration in anesthetized rat. It is filed as functional. The note with it: Heart left ventricle.
In assay [7] the target is T1, Phosphodiesterase 4. Nature of the assay: (§1) Inhibition of canine kidney Phosphodiesterase 4. It is filed as protein assay. The note with it: Canis lupus familiaris; target entry is the homologue from another species; concentration not given here.
The test system of assay [8] is Rattus norvegicus. As to the kind of experiment: Peak percent change in contractile force produced by the administration of 1 mg/kg intravenously in ansthetetized rat. The format is functional. Conditions: route intravenous.
Assay [9] concerns Rattus norvegicus. Nature of the assay: 25% increase in left ventricular contractility (dP/dtmax) on iv administration in anesthetized rat; not active. The format is functional, organism-based. Conditions: Heart left ventricle.
Assay [10] deals with Canis familiaris. As to the kind of experiment: Peak percent change in contractile force produced by 1 mg/kg administered intravenously in anesthetized dog. It is filed as functional, Canis lupus familiaris. The note with it: route intravenous.
The subject of assay [11] is Canis familiaris. Nature of the assay: Peak percent change in contractile force produced by the administration of 1 mg/kg intravenously in anesthetized dog; Not active. Conditions: Canis lupus familiaris.
In assay [12] the test system is Rattus norvegicus. Nature of the assay: 25% increase in left ventricular (dP/dtmax) after iv administration in anesthetized rat; Not active at 3 mg/kg. Details: dose 3 mg/kg. Conditions: Heart left ventricle. It is filed as functional, organism-based.
For assay [13], the system named is Canis familiaris. As to the kind of experiment: Peak percent change in contractile force produced by the administration of 1 mg/kg intravenously in anesthetized dog; not active. The format is functional, organism-based. Set-up: dose 1 mg/kg. Conditions: Canis lupus familiaris; at 1 mg/kg.
Another assay has as its system Canis lupus familiaris. As to the kind of experiment: 25% increase in left ventricular contractility (dP/dtmax) after iv administration in anesthetized dog. The note with it: Heart left ventricle.
Assay [14] has as its system Canis familiaris. Nature of the assay: Peak percent change in contractile force produced after iv administration at 0.3 mg/kg in anesthetized dog. The format is functional, Canis lupus familiaris.
The subject of assay [15] is Canis familiaris. As to the kind of experiment: 25% increase in left ventricular contractility (dP/dtmax) in anesthetized dog on iv administration. Conditions: Canis lupus familiaris, Heart left ventricle. The format is functional.
Assay [16] has as its system Rattus norvegicus. Nature of the assay: 25% increase in left ventricular contractility (dP/dtmax) on iv administration in anesthetized rat; Not active. The note with it: Heart left ventricle. It is filed as functional, organism-based.
For assay [17], the system named is Canis familiaris. As to the kind of experiment: Increased heart rate in conscious dogs on oral administration at 10 mg/kg. The format is functional, Canis lupus familiaris.
The target in assay [18] is T1, Phosphodiesterase 4. The assay is described as §1. The format is protein assay, Canis lupus familiaris. The note with it: target entry is the homologue from another species.
Assay [19] relates to Canis familiaris. As to the kind of experiment: Inotropic activity in anesthetized dog. It is filed as functional. The note with it: Canis lupus familiaris.
Assay [20] concerns the target T1, Phosphodiesterase 4. As to the kind of experiment: Inhibition of canine heart Phosphodiesterase 4. It is filed as protein assay, Canis lupus familiaris. The note with it: target entry is the homologue from another species.
Assay [21] deals with Canis familiaris. As to the kind of experiment: Peak percent change in contractile force produced after iv administration at 1 mg/kg in anesthetized dog.
Assay [22] has as its system Canis familiaris. Nature of the assay: 25% increase in left ventricular contractility (dP/dtmax) after iv administration in anesthetized dog; Not active. Conditions: Canis lupus familiaris, Heart left ventricle. The format is functional.
The test system of assay [23] is Canis familiaris. Nature of the assay: 25% increase in left ventricular contractility (dP/dtmax) on iv administration in anesthetized dog. The note with it: Canis lupus familiaris, Heart left ventricle. It is filed as functional.
For assay [24], the system named is Rattus norvegicus. Nature of the assay: 25% increase in left ventricular contractility (dP/dtmax) on iv administration in anesthetized rat; Not active at 3 mg/kg. Details: dose 3 mg/kg. Conditions: Heart left ventricle. It is filed as functional, organism-based.

In the case of `Cn1ccnc1-c1nc(C#N)c[nH]1`, the Change in the assay on Canis familiaris [1] turned out to be 29%.

`CSc1ccc(C(=O)c2[nH]c(=O)[nH]c2C)cc1` [ENOXIMONE] registered an inhibition on Phosphodiesterase 4 [2] of 34%. The ED25 turned out to be 0.46 mg/kg with Canis familiaris [3] and 1.4 mg/kg with Rattus norvegicus [4]. For the same molecule, in the assay with Canis familiaris [1], the Change came to 73%.

Turning to `Cc1[nH]c(=O)c(C#N)cc1-c1ccncc1` [MILRINONE], the Change in the assay with Canis familiaris [5] is 110%; with Canis familiaris [1] it was 52%. Also, the ED25 in the assay with Canis familiaris [3] worked out at 0.06 mg/kg; in the assay with Rattus norvegicus [4], 0.3 mg/kg.

In the assay on Rattus norvegicus [6], `Clc1c[nH]c(-c2nc(Cl)c[nH]2)n1` registered an ED25 of 0.7 mg/kg.

Consider `N#Cc1c[nH]c(-c2c[nH]cn2)n1`, for which the Change in the assay with Canis familiaris [1] was 25%.

For `Nc1cc(-c2ccncc2)c[nH]c1=O` [INAMRINONE], in the assay with Canis familiaris [5], the Change worked out at 19%. The same molecule returned an inhibition at Phosphodiesterase 4 [7] of 24%.

`CSc1c[nH]c(-c2ncc[nH]2)n1`: in the assay on Canis familiaris [1], the Change was found to be 4%.

As for `Cn1ccnc1-c1ncc(C#N)n1C`, the Change in the assay on Rattus norvegicus [8] amounted to 13%.

In the case of `O=C(O)c1c[nH]c(-c2ncc[nH]2)n1`, the ED25 result with Rattus norvegicus [9] was “inactive”.

On to `Cc1c[nH]c(-c2ncc[nH]2)n1`, for which, in the assay on Rattus norvegicus [9], the ED25 result was “inactive”.

Take `N#Cc1c[nH]c(-c2nc(Br)c(Br)[nH]2)n1`: in the assay with Canis familiaris [10], the Change stood at 96%.

As to `N#Cc1c[nH]c(-c2csc(NC(=N)N)n2)n1`, the Change result in the assay on Canis familiaris [11] was “inactive”.

Regarding `CCn1ccnc1-c1nc(C#N)c[nH]1`, the Change in the assay with Canis familiaris [1] stood at 41%.

Take `N#Cc1c[nH]c(-c2nccn2Cc2ccccc2)n1`: the Change in the assay with Canis familiaris [1] came to 2%.

On to `N#Cc1c[nH]c(-c2ccc(Br)s2)n1`, for which the ED25 entry in the assay on Rattus norvegicus [9] was “inactive”.

In the case of `OCc1c[nH]c(-c2ncc[nH]2)n1`, in the assay on Canis familiaris [1], the Change is 0%.

In the case of `Clc1c[nH]c(-c2ncc[nH]2)n1`, the ED25 entry in the assay on Rattus norvegicus [12] was “inactive”.

Take `FC(F)(F)c1c[nH]c(-c2nc(Br)c[nH]2)n1`: the ED25 result in the assay on Rattus norvegicus [12] was “inactive”.

For `N#Cc1c[nH]c(-c2nccn2-c2ccccc2)n1`, in the assay with Canis familiaris [1], the Change is recorded as 0%.

As for `C=Cn1ccnc1-c1nc(C#N)c[nH]1`, the Change in the assay on Canis familiaris [1] is listed as 41%.

For `N#Cc1c[nH]c(-c2cccnc2)n1`, the ED25 entry with Rattus norvegicus [9] is “inactive”. Also, the Change in the assay with Canis familiaris [1] is reported as 31%.

Regarding `N#Cc1c[nH]c(-c2ccc(-c3nc(C#N)c[nH]3)cc2)n1`, the Change in the assay on Canis familiaris [1] stood at 8%.

In the case of `N#Cc1c[nH]c(-c2cn[nH]c2)n1`, the Change entry in the assay with Canis familiaris [13] is “inactive”. For the same molecule, the ED25 result in the assay with Rattus norvegicus [9] was “inactive”.

In turn, `N#Cc1c[nH]c(-c2nc(Br)c[nH]2)n1` came in with an ED25 with Canis lupus familiaris of 0.2 mg/kg.

Take `FC(F)(F)c1c[nH]c(-c2c[nH]cn2)n1`: in the assay with Canis familiaris [1], the Change is on record as 0%.

`N#Cc1c[nH]c(-c2ccc(-n3ccnc3)cc2)n1`: the Change in the assay on Canis familiaris [1] is given as 17%.

Turning to `C[C@@H]1C(=O)NC2=Nc3cccc(Cl)c3CN21` [QUAZINONE], the Change with Canis familiaris [14] turned out to be 47%.

As to `N#Cc1[nH]cnc1-c1ncc[nH]1`, in the assay on Canis familiaris [1], the Change is recorded as 0%.

Consider `CN(C)Cc1ccc(-c2nc(C#N)c[nH]2)o1`, for which the Change result in the assay on Canis familiaris [11] is “inactive”.

`O=Cc1c[nH]c(-c2ncc[nH]2)n1`: the ED25 entry in the assay on Rattus norvegicus [12] was “inactive”.

For the molecule `NC(=O)c1c[nH]c(-c2ncc[nH]2)n1`, the ED25 result in the assay on Rattus norvegicus [9] is “inactive”.

On to `Cn1cc(C#N)nc1-c1ncc[nH]1`, for which the ED25 in the assay on Canis familiaris [15] came out at 0.17 mg/kg.

`FC(F)(F)c1c[nH]c(-c2ncc[nH]2)n1`: the ED25 result in the assay with Rattus norvegicus [16] was “inactive”.

The molecule `c1c[nH]c(-c2ncc[nH]2)n1` returned an ED25 in the assay on Rattus norvegicus [4] of 0.24 mg/kg.

`Brc1c[nH]c(-c2ncc[nH]2)n1` returned an ED25 with Rattus norvegicus [6] of 5.5 mg/kg.

As for `N#Cc1c[nH]c(-c2nc(-c3ccc(C(F)(F)F)cc3)c[nH]2)n1`, the ED25 in the assay on Canis familiaris [15] came to 0.26 mg/kg.

In the case of `N#Cc1c[nH]c(-c2nc(Cl)c[nH]2)n1`, the Change with Canis familiaris [10] worked out at 95%.

On to `N#Cc1c[nH]c(-c2nc(C#N)c[nH]2)n1`, for which, in the assay on Canis familiaris [15], the ED25 is 0.18 mg/kg.

With `C[S+]([O-])c1c[nH]c(-c2ncc[nH]2)n1` (configuration not stated), the Change with Canis familiaris [1] is 1%.

As for `COc1ccc(-c2c[nH]c(-c3nc(C#N)c[nH]3)n2)cc1`, the ED25 in the assay on Canis familiaris [15] was 0.36 mg/kg. The Change in the assay with Canis familiaris [1] came out at 106%.

`N#Cc1c[nH]c(-c2ncc[nH]2)n1`: the “Increase in heart rate” value in the assay with Canis familiaris [17] worked out at 45 beats min-1. Besides, the IC50 against Phosphodiesterase 4 [18] was 339 µM; at Phosphodiesterase 4 [20], 36.7 µM. The molecule also yielded an ED25 with Canis familiaris [19] of 0.16 mg/kg. Besides, the Change in the assay with Canis familiaris [21] is on record as 60%.

As to `Cn1c(Cl)cnc1-c1nc(C#N)c[nH]1`, the Change in the assay with Canis familiaris [1] stood at 11%.

As for `O=Cc1c[nH]c(-c2nc(C=O)c[nH]2)n1`, the ED25 entry in the assay with Rattus norvegicus [12] is “inactive”.

Turning to `Cc1c[nH]c(-c2nc(C#N)c[nH]2)n1`, the ED25 with Canis familiaris [22] amounted to 0.63 mg/kg.

With `COC(=O)c1c[nH]c(-c2ncc[nH]2)n1`, in the assay with Rattus norvegicus [9], the ED25 result was “inactive”.

`Cn1c(C#N)cnc1-c1ncc[nH]1`: the Change with Canis familiaris [1] was found to be 3%.

With `Cc1ccsc1-c1nc(C#N)c[nH]1`, the ED25 entry in the assay on Rattus norvegicus [9] was “inactive”.

As for `Brc1c[nH]c(-c2nc(Br)c[nH]2)n1`, the ED25 entry in the assay on Rattus norvegicus [12] is “inactive”.

Turning to `NCc1c[nH]c(-c2ncc[nH]2)n1`, the ED25 result in the assay on Rattus norvegicus [9] was “inactive”.

In the case of `N#Cc1c[nH]c(-c2nc(-c3ccccc3)c[nH]2)n1`, the ED25 in the assay with Canis familiaris [23] was 0.89 mg/kg.

Regarding `N#Cc1c[nH]c(-c2cc[nH]n2)n1`, the ED25 result in the assay with Rattus norvegicus [9] was “inactive”. Also, the Change with Canis familiaris [1] is -4%.

For `C[Si](C)(C)CCOCn1ccnc1-c1nccn1COCC[Si](C)(C)C`, the ED25 result in the assay with Rattus norvegicus [24] is “inactive”.

For the molecule `N#Cc1c[nH]c(-c2ccco2)n1`, in the assay with Rattus norvegicus [9], the ED25 entry is “inactive”.

`c1c[nH]c(-c2nc(-c3nn[nH]n3)c[nH]2)n1`: the ED25 entry with Rattus norvegicus [9] was “inactive”. For the same molecule, the Change in the assay with Canis familiaris [1] turned out to be 0%.

For `N#Cc1c[nH]c(-c2nc(C(F)(F)F)c[nH]2)n1`, the ED25 in the assay on Canis familiaris [15] was found to be 0.33 mg/kg.

For `N#Cc1c[nH]c(-c2cccs2)n1`, the ED25 result in the assay on Rattus norvegicus [9] is “inactive”.
